The assay addresses T1, OSBPL11 (OSBPL11-myc-His) (Homo sapiens, UniProt Q9BXB4).
T1 construct: full length, C-terminal myc-His tag (pcDNA3.1(+)myc/his C), transiently expressed in 293T cells; 100,000 g supernatant (S100) of lysate, not purified
T1 sequence (Q9BXB4 1-747): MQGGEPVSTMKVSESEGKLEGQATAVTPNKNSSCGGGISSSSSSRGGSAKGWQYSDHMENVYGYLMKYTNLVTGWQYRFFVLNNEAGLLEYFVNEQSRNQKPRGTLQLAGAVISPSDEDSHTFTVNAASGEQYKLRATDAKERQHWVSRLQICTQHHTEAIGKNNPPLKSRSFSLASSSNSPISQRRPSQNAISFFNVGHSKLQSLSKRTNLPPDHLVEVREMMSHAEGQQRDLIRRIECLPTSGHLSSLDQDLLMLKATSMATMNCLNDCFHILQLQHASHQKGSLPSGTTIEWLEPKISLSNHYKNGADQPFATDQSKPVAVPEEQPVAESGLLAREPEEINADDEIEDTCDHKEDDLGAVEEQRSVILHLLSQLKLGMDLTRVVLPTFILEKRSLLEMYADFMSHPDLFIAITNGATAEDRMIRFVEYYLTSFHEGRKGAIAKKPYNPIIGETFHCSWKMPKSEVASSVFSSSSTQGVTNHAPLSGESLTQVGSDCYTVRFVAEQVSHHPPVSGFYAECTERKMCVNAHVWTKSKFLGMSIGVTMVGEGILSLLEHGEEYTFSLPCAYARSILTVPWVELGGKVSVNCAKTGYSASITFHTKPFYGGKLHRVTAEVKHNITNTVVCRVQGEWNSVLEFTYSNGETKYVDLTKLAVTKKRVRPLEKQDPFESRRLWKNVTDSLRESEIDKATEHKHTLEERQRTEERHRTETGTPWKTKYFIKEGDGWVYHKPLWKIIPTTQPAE
In words: [3H]-25-hydroxycholesterol competition binding, charcoal/dextran, S100 lysate. Format: biochemical.

`C[C@H](CCCC(C)(C)O)[C@H]1CC[C@H]2[C@@H]3CC=C4C[C@@H](O)CC[C@]4(C)[C@H]3CC[C@]12C` [25-hydroxycholesterol]: the inhibition constant Ki (commonly the dissociation constant of the complex between target and ligand, obtained from inhibition or displacement) came to 32 nM.

The record behind these values is article doi:10.1101/2025.05.27.25328359, “OSBPL11 is an African-specific locus associated with 25-hydroxyvitamin D concentrations and cardiometabolic health” (medRxiv, 2025).
